Experimental data reported in patent EP3095787A1, “[…] ACTIVE COMPOUNDS AS DAG-LIPASE INHIBITORS” (Universiteit Leiden, priority 2015, dated 2016).

Columns and labels:
FAAH = target: T1, FAAH (Mus musculus, UniProt O08914); test: Gel based competitive ABPP selectivity assay with TAMRA-FP in mouse brain proteome (FAAH band); format: biochemical; settings: 10 µM inhibitor; TAMRA-FP 500 nM; mouse brain proteome; vehicle set to 100%
T1 construct: For gel based ABPP experiments mouse brain proteome (2.0 mg/mL, 20 µL) was preincubated; from tissue; host or cells: mouse brain proteome
T1 sequence (O08914 1-579): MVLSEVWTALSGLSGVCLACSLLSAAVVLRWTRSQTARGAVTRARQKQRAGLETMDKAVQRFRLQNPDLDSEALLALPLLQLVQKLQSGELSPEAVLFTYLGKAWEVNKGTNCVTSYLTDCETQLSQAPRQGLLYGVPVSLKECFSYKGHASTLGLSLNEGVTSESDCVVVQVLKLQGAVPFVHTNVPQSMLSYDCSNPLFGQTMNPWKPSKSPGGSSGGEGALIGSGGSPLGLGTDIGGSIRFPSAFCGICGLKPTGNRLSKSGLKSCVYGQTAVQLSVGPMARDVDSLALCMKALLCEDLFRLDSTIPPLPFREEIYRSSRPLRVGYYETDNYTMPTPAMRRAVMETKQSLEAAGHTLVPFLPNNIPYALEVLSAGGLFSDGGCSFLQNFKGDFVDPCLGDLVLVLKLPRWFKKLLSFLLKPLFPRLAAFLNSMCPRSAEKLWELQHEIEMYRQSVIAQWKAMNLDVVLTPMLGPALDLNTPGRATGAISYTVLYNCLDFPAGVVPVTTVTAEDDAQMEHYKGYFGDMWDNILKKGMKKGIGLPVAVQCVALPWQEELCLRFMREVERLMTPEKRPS
Experimental: (§1) For gel based ABPP experiments mouse brain proteome (2.0 mg/mL, 20 µL) was preincubated for 30 min with vehicle (DMSO) or compound to be tested in 0.5 µL DMSO at rt. And subsequently treated with 500 nM (final concentration) TAMRA-FP (TAMRA-FP was bought at Thermo Fischer) for 15 minutes at rt. The reactions were quenched with 10 µL standard 3 x SDS page sample buffer. The samples were directly loaded and resolved on SDS page gel (10 % acrylamide). The gels were scanned with a ChemiDoc MP sytem (Biorad, Cy 3 settings, 605/50 filter) and analyzed using Image Lab 4.1.
The percentage effect on FAAH was determined by measuring the integrated optical intensity of the band corresponding to FAAH (∼ 63 kD for mouse) using Image lab software. This activity was corrected for the total protein loading per lane as determined by coomassie staining and imaging with a ChemiDoc™ MP sytem (Biorad) followed by determination of the integrated optical intensity per lane by using Image Lab 4.1 software. The intensity of the protein bands from the samples treated with vehicle was set to 100%. […] N/A means less than 50% probe displacement at 10 µM inhibitor concentration.

hDAGL-α [1] = target: T2, hDAGL-α (Homo sapiens, UniProt Q9Y4D2); test: Biochemical hDAGL-α activity assay (PNP-butyrate hydrolysis, 96 well plate); set-up: expressed in transfected cells; host or cells: HEK293T (transient), membrane fraction; settings: PNP-butyrate 0.3 mM, membranes of HEK293T cells transfected with hDAGL-α; for IC50: read-out: DAGL-α Activity assay pIC50 (converted)
T2 sequence (Q9Y4D2 1-1042): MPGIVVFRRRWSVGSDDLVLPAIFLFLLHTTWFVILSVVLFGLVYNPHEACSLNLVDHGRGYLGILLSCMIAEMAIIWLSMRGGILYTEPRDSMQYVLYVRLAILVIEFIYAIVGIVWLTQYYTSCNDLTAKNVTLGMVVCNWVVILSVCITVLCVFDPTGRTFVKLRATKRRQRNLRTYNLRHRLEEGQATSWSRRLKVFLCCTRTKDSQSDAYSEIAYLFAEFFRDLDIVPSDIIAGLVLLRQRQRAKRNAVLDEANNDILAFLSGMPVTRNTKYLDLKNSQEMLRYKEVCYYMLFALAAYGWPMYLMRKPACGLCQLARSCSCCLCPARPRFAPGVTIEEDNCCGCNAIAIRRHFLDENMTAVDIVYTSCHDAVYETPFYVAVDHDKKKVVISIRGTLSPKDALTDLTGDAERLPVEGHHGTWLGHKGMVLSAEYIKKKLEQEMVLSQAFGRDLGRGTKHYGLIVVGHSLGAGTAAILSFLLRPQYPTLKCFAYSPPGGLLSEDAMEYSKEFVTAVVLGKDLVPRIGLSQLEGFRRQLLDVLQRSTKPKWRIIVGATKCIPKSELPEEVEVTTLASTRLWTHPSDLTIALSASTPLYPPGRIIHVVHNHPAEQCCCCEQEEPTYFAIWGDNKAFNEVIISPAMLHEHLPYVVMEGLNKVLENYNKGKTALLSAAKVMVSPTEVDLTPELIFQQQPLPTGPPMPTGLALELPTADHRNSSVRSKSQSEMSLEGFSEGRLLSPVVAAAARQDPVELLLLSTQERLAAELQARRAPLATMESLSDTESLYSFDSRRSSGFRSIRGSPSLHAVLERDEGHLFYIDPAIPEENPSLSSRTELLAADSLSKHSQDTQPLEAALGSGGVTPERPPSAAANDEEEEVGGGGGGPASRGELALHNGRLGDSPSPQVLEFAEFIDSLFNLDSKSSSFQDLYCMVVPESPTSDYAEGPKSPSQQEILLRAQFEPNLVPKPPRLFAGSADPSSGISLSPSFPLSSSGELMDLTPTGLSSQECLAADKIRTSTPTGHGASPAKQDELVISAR
Experimental: The biochemical hDAGL-α activity assay is based on the hydrolysis of para-nitrophenylbutyrate (PNP-butyrate) by membrane preparations from HEK293T cells transiently transfected with hDAGL-α. 200 µL reactions were performed in flat bottom Greiner 96-wells plates in a 50 mM pH 7.2 Hepes buffer. Membrane protein fractions from HEK293T cells transiently transfected with hDAGL-α (0.05 µg/µL final concentration) were used as hDAGL-α source. Compounds to be tested were introduced in 5 µL DMSO. The mixtures were incubated for 30 minutes before 5.0 µL 12 mM PNP-butyrate (final concentration 0.3 mM) in DMSO was added (final DMSO concentration 5.0%). Kinetics were followed immediately after addition of PNP-butyrate on a plate reader (TECAN GENios® microplate reader), by measuring the OD420 every 60 seconds, for 20 minutes at 37°C. The slope of the linear region from 5-15 minutes was determined, and all experiments were performed at N = 2, n = 2 for experimental measurements and N = 2, n = 4 for controls.
Data analysis: Z'-factor of each plate was determined for the validation of each experiment, using the following formula Z' = 1-3(σpc + σnc)/(µpc - µnc). The slope from 5-15 minutes of the positive control (pc: hDAGL-α, DMSO), and the negative control (nc: Mock, DMSO) was used. Plates were accepted for further analysis when Z' > 0.6. Kinetic measurements were corrected for the average absorption of the negative control (mock, DMSO). The slope of the linear region from 5-15 minutes was determined. The average, standard deviation (SD) and standard error of mean (SEM) were calculated and normalized to the corrected positive control. Data was exported to Graphpad Prism 5.0 for the calculation of the pIC50 using a nonlinear dose-response analysis.

hDAGL-α [2] = target: T2, hDAGL-α; test: Mode of action (reversibility) experiment: size exclusion chromatography, then MB064 labeling; format: biochemical; set-up: expressed in transfected cells; settings: pre-incubation at IC80 concentration; remaining activity visualized with MB064; n=3
Experimental: To determine the mode of action (reversible versus irreversible) of the inventive compounds, an experiment in which human DAGL-α membranes were pre-incubated at the IC80 concentration of compound 25 or the irreversible DAGL inhibitor KT-109 was performed.

serine hydrolases = test: Comparative and competitive gel ABPP selectivity in mouse brain membrane proteome (TAMRA-FP and MB064); format: biochemical; settings: 1 µM; including ABHD6 and ABHD12
Experimental: as §1
To investigate the selectivity of compound 25 in the mouse brain proteome comparative and competitive ABPP was used with a broad-spectrum FP-based probe (TAMRA-FP) and the tailored DAGL-α ABP MB064. As a reference the widely used β-lactone-based DAGL-inhibitors THL and OMDM-188, two broad-spectrum covalent and irreversible serine hydrolase inhibitors, were firstly tested.

Row | Compound | FAAH ABPP (10 µm) % Eff. (FAAH) | IC50 (hDAGL-α [1]) [nM] | also measured
1 | 1-(4-fluoro-6-(2-fluorophenyl)benzo[d]oxazol-2-yl)-6-phenylhexan-1-one [Compound 31] | N/A (N/A means less than 50% probe displacement at 10 µM inhibitor concentration) | – | DAGL-α Activity assay pIC50 (hDAGL-α [1]): 8.6
2 | Cc1ccc(-c2cnc3nc(C(=O)CCc4ccccc4Oc4ccccc4)oc3c2)cc1 [Compound 26, 3-(2-phenoxyphenyl)-1-(6-(p-tolyl)oxazolo[4,5-b]pyridin-2-yl)propan-1-one] | N/A (N/A means less than 50% probe displacement at 10 µM inhibitor concentration) | 8.32 | –
3 | Cc1ccc(-c2cnc3nc(C(=O)CCc4cccc(Oc5ccccc5)c4)oc3c2)cc1 [Compound 27, 3-(3-Phenoxyphenyl)-1-(6-(p-tolyl)oxazolo[4,5-b]pyridin-2-yl)propan-1-one] | N/A (N/A means less than 50% probe displacement at 10 µM inhibitor concentration) | 3.72 | –
4 | Cc1ccc(-c2cnc3nc(C(=O)CCc4ccc(Oc5ccccc5)cc4)oc3c2)cc1 [Compound 28, 3-(4-phenoxyphenyl)-1-(6-(p-tolyl)oxazolo[4,5-b]pyridin-2-yl)propan-1-one] | N/A (N/A means less than 50% probe displacement at 10 µM inhibitor concentration) | 5.13 | –
5 | Cc1ccc(-c2cnc3nc(C(=O)CCc4ccc(Oc5ccc(C(F)(F)F)cn5)cc4)oc3c2)cc1 [Compound 29, 1-(6-(p-Tolyl)oxazolo[4,5-b]pyridin-2-yl)-3-(4-((5-(trifluoromethyl)pyridin-2-yl)oxy)phenyl)propan-1-one] | N/A (N/A means less than 50% probe displacement at 10 µM inhibitor concentration) | 0.851 | –
6 | O=C(CCCCCc1ccccc1)c1nc2c(F)cc(-c3ccc(F)cc3)cc2o1 [Compound 30, 1-(4-fluoro-6-(4-fluorophenyl)benzo[d]oxazol-2-yl)-6-phenylhexan-1-one] | N/A (N/A means less than 50% probe displacement at 10 µM inhibitor concentration) | 5.01 | –
7 | Cc1ccc(-c2cc(F)c3nc(C(=O)CCCCCc4ccccc4)oc3c2)cc1 [Compound 32, 1-(4-fluoro-6-(p-tolyl)benzo[d]oxazol-2-yl)-6-phenylhexan-1-one] | N/A (N/A means less than 50% probe displacement at 10 µM inhibitor concentration) | 1.41 | –
8 | Cc1ccccc1-c1cc(F)c2nc(C(=O)CCCCCc3ccccc3)oc2c1 [Compound 33, 1-(4-fluoro-6-(o-tolyl)benzo[d]oxazol-2-yl)-6-phenylhexan-1-one] | N/A (N/A means less than 50% probe displacement at 10 µM inhibitor concentration) | 1.32 | –
9 | O=C(N1CCCCC1Cc1ccccc1)n1cc(-c2ccc(-c3ccccc3)cc2)nn1 (stereo not shown) [KT-109, reference compound] | – | – | recovery of DAGL-α activity after size exclusion chromatography (hDAGL-α [2]): No recovery of DAGL-α activity
10 | CCCCCCCCCCC[C@@H](C[C@@H]1OC(=O)[C@H]1CCCCCC)OC(=O)[C@@H](NC=O)[C@@H](C)CC [OMDM-188, reference compound] | – | – | number of serine hydrolases whose labeling is blocked (serine hydrolases): at least 4
11 | CCCCCCCCCCC[C@@H](C[C@@H]1OC(=O)[C@H]1CCCCCC)OC(=O)[C@H](CC(C)C)NC=O [THL, Tetrahydrolipstatin, reference compound] | – | – | number of serine hydrolases whose labeling is blocked (serine hydrolases): at least 4
